Experimental data taken from paper PMC7153024, “New 8-Nitroquinolinone Derivative Displaying Submicromolar in Vitro Activities against Both Trypanosoma brucei and cruzi” (ACS Medicinal Chemistry Letters, 2020).
“And” between values parts separate entries of the source, which are not always exact repeats. Equal values may be shown once. “Also recorded” adds a separate entry of the source. Read-outs that look alike come from different tables or passages of the source. Blank lines part the entries; values can stand above or below the compound they belong to.

Tests used:
[1] = tested on: T. brucei brucei trypomastigotes; experiment: Antitrypanosomal activity on T. brucei brucei trypomastigotes (AnTat 1.9, Alamar Blue); type: cell-based, Trypanosoma brucei brucei; conditions: for Selectivity index regarding T. b. brucei: HepG2 CC50 versus T. b. brucei EC50; for Antitrypanosomal activity against T. b. brucei (in words): trypomastigotes; for EC50: Trypanosoma brucei, read-out: T. b. brucei trypomastigotes EC50
human albumin = experiment: Human albumin binding assay; type: in vitro ADME
Experimental: are kept at 4 °C for immediate analysis or placed at -80 °C in case of postponement of the analysis.
Controls (t0 and tfinal) in triplicate are prepared by incubation of the internal standard with microsomes denatured by acetonitrile. The LC-MS used for this study is a Waters® Acquity I-Class / Xevo TQD, equipped with a Waters® Acquity BEH C18 column, 50 x 2.1 mm, 1.7 μm. The mobile phases are (A) […]
The injection volume is 1 µL and […]
the flow rate is 600 µL/min.
98% (B); […]; 2.6 < t < 4 min, 2% (B). Compound 8-bromo-6- […]
chloro-3-nitro-2-(phenylsulfonylmethyl)imidazo[1,2-a]pyridine is used as internal standard. The quantification of each compound is obtained by converting the average of the ratios of the analyte/internal standard surfaces to the percentage of consumed product. The ratio of the control at t0 corresponds to 0% of product consumed. The calculation of the half-life (t1/2) of each compound in the […]
presence of microsomes is done according to the equation: . Where k is the first-order t1=k […]
degradation constant (the slope of the logarithm of compound concentration versus incubation time).
The intrinsic clearance in vitro (Cl int expressed in μL/min/mg) is calculated according to the equation:
Clint= [microsomes]. […]

[2] = PAMPA assay using a blood-brain barrier (BBB) model; type: in vitro ADME; conditions: tested concentration 100 µM, pH 7.4
[3] = Redox potentials by cyclic voltammetry in DMSO; conditions: 13 vs hit 2; 9, hit 1 and 2 vs pharmacophore; 10 vs 9; 5 vs 2
in vitro = conditions: human, Cytotoxicity HepG2 CC50
[4] = tested on: L. infantum axenic amastigotes; experiment: Antileishmanial activity on L. infantum axenic amastigotes; type: cell-based, Leishmania infantum; conditions: for Activity toward L. infantum (in words): axenic amastigotes
Experimental: Experiments were performed at room temperature
The supporting electrolyte
The redox potentials measured (V/SCE) correspond […]
in a ventilated flask to transform promastigotes into axenic amastigotes. The amastigote stage was checked both by electron microscopy (short flagellum with small bulbous tip extending beyond a spherical cell body) and RT-PCR for confirming the overexpression of ATG8 and amastin genes in amastigotes, compared to promastigotes. The effects of the tested compounds on the growth of L. infantum axenic amastigotes were assessed as follows. L. infantum amastigotes were incubated at a density of 2 × 10^6 parasites/mL in sterile 96-well plates with various concentrations of compounds dissolved in DMSO (final concentration less than 0.5% v/v), in duplicate. Appropriate controls DMSO, amphotericin B, miltefosine and fexinidazole (reference drugs purchased from Sigma Aldrich) were added to each set of experiments. After a 48 h incubation period at 37 °C, each plate-well was then microscopically-examined to detect any precipitate formation. To estimate the luciferase activity of axenic amastigotes, 80 µL of each well were transferred to white 96-well plates, Steady Glow® reagent (Promega) was added according to manufacturer's instructions, and plates were incubated for 2 min. The luminescence was measured in Microbeta Luminescence Counter (PerkinElmer). Efficient […]
metabolic activity of L. infantum amastigotes compared to control. EC 50 values were calculated by non- […]
values represent the mean of three independent experiments.
Antileishmanial activity on L. donovani promastigotes NTR1 and NTR2 over-expressing strain.
Cell lines and culture conditions: The clonal Leishmania donovani cell line LdBOB (derived from MHOM/SD/62/1S-CL2D) was grown as promastigotes at 26 °C in modified M199 media, as previously described.[2] LdBOB promastigotes overexpressing NTR1 (LinJ.05.0660) and NTR2 (LinJ.12.0730) were grown in the presence of nourseothricin (100 µg/mL). To examine the effects of test compounds on growth, triplicate promastigote cultures were seeded with 5 × 10^4 parasites/mL. Parasites were grown in 10 ml cultures in the presence of drug for 72 h, after which 200 μL aliquots of each culture were added to 96-well plates, 50 μM resazurin was added to each well and fluorescence (excitation of 528

[5] = parameters: method as in PMID 21200426; conditions: cited from earlier work
[6] = tested on: Salmonella typhimurium strains; conditions: cited from earlier work
[7] = tested on: L. infantum axenic amastigotes; conditions: previously reported pharmacophore and hit compounds; read-out: L. infantum axenic amastigote EC50; cited from earlier work
[8] = tested on: T. brucei brucei trypomastigotes; conditions: previously reported pharmacophore and hit compounds; cited from earlier work
HepG2 cell line [9] = conditions: read-out: Cytotoxicity HepG2 CC50, cited from earlier work
[10] = tested on: Trypanosoma brucei brucei trypomastigotes wild type; experiment: T. brucei trypomastigotes, wild type strain (S427); type: cell-based
Experimental: Cells overexpressing NTR were
Cell densities were determined after culture for 72 h, as previously described. EC50 values were determined using GraFit as described above.
Cytotoxic evaluation on HepG2 cell line.
Briefly, cells (1 × 10^5 cells/mL) in 100
Each plate-well was then microscope-examined […]
for 2 h at 37 °C and 5% CO2. […]
added to dissolve the resulting formazan crystals. Plates were shaken vigorously (300 rpm) for 5 min.

HepG2 cell line [11] = experiment: Alkaline comet assay on HepG2 cells; type: cell-based, human; conditions: HepG2, 1 and 10 μM, 2 or 72 h of incubation
Source text: Even though many safe nitroaromatic molecules are today on the market (for example, antiprotozoal 5-nitroimidazoles such as metronidazole, several antihypertensive dihydropyridines like nicardipine, some benzodiazepines like loprazolam, anti-Parkinson’s catechol O-methyltransferase (COMT) inhibitors like entacapone, antiandrogens like flutamide, anti-inflammatory nimesulide, immunomodulating azathioprine, anticoagulant acenocoumarol, anthelminthic niclosamide, etc.) or in clinical trials (for instance, delamanid), drugs including a nitroaromatic moiety suffer from a bad reputation as possible mutagenic or genotoxic molecules, which narrows their pharmaceutical development.[29] The Ames test is the most commonly used assay to evaluate the mutagenic potential of compounds, using Salmonella typhimurium strains. […] Thus it is accepted that the comet assay or the micronucleus assay are more pertinent methods to evaluate the genotoxic potential of nitroaromatic compounds. For example, fexinidazole is positive in the Ames test but negative in the micronucleus assay.[31] A comet assay was then performed on the HepG2 cell line with hit compound 12, using methylmethanesulfonate (MMS) as a positive control (see the Supporting Information).
Electrophoresis (with a solution which contained
28 V (resulting in 0.8 V/cm).
After staining with SYBR®
Prague Czech Republic). […] The median […]

[12] = In vivo pharmacokinetics in the mouse after oral administration; conditions: oral 25 mg/kg
Experimental: Finally, the in vivo pharmacokinetic parameters were determined in the mouse, after oral administration at 25 mg/kg in a mixture of 5% Tween 80 and 95% of 0.5% carboxymethylcellulose in water, by using the QuEChERS method.[32] Monolix Lixoft software was used to analyze the data by a noncompartmental model to fit pharmacokinetics parameters.[33] […]
acetonitrile with 0.1% formic acid. […] The […]
decrease to 2% (B); 2.6 < t < 4 min, 2% (B). Carbamazepine, oxazepam, warfarine and diclofenac are […]
The unbound fraction (fu) is […]
internal standard (propranolol 200 nM).
= 350 μL and Vplasma = 200 μL).
All animals were kept under the same
3, 6, 9, 12, and 24h after administration. Blood samples were stored frozen until required for assay.
Sample preparation for spectrometry analysis
Megazol was used like the internal standard (IS). LC-MS Optima grade Acetonitrile (ACN) and […]
sesquihydrate) were supplied by VWR.

HepG2 cell line [13] = conditions: human, 72 h
[14] = Tolerance in the mouse after oral administration
[15] = female, Swiss, whole blood of mouse, n = 4

SMILES: O=C(O)c1ccc(-c2cc3cc(Br)cc([N+](=O)[O-])c3[nH]c2=O)cc1 [Compound 13]
Selectivity index regarding T. b. brucei [1]: > 200 | Albumin binding assay (human albumin): > 99% | BBB PAMPA assay Pe [2]: 1.27 ×10⁻⁶ cm/s and 1.27 ± 0.09 ×10⁻⁶ cm/s | Shift of the E° value versus the comparator compound [3]: +0.16 V

SMILES: O=c1[nH]c2c([N+](=O)[O-])cc(Cl)cc2cc1Cl [Compound 11]
Selectivity index regarding T. b. brucei [1]: > 200

Shift of the E° value versus the comparator compound [3]: +0.14 V
SMILES: O=c1ccc2cc(Br)cc([N+](=O)[O-])c2[nH]1 [Compound 9]
Selectivity index regarding T. b. brucei [1]: > 200 | Times more active than 3-bromo-position isomer (hit 1) ([1]; T. b. brucei trypomastigotes): 27 | Times more active than the 8-nitroquinolin-2(1H)-one pharmacophore ([1]; T. b. brucei trypomastigotes): 334 | CC50 at 72 h (in vitro): 28 to 41 µM

SMILES: O=c1[nH]c2c([N+](=O)[O-])cc(C(F)(F)F)cc2cc1Br [Compound 7]
Selectivity index (antileishmanial) ([4]; regarding L. infantum, HepG2): > 10 | Selectivity index regarding T. b. brucei [1]: > 200 | BBB PAMPA assay Pe [2]: 45.03 ×10⁻⁶ cm/s and 45.03 ± 17.05 ×10⁻⁶ cm/s

SMILES: CSc1ccc(OCc2ncc([N+](=O)[O-])n2C)cc1 [Fexinidazole]
Micronucleus assay [5]: negative | Ames test [6]: positive

SMILES: O=c1ccc2cc(C(F)(F)F)ccc2[nH]1 [Compound 1]
Activity toward L. infantum (in words) [4]: inactive | Antitrypanosomal activity against T. b. brucei (in words) [1]: inactive

SMILES: O=c1[nH]c2ccc(C(F)(F)F)cc2cc1Cl [Compound 3]
Activity toward L. infantum (in words) [4]: inactive | Antitrypanosomal activity against T. b. brucei (in words) [1]: inactive

SMILES: O=c1[nH]c2ccc(C(F)(F)F)cc2cc1Br [Compound 4]
Activity toward L. infantum (in words) [4]: inactive | Antitrypanosomal activity against T. b. brucei (in words) [1]: inactive

Shift of the E° value versus the comparator compound [3]: +0.15 V
SMILES: O=c1ccc2cc(C(F)(F)F)cc([N+](=O)[O-])c2[nH]1 [Compound 2]
CC50 at 72 h (in vitro): 28 to 41 µM

Shift of the E° value versus the comparator compound [3]: +0.09 V
SMILES: O=c1[nH]c2c([N+](=O)[O-])cccc2cc1Br [Hit 1]
EC50 [7]: 7.1 ± 1.5 µM | EC50 [8]: 1.9 ± 0.4 µM | CC50 (HepG2 cell line [9]; previously reported pharmacophore and hit compounds): 92 ± 13 µM

SMILES: O=C(O)c1ccc(-c2cc3cccc([N+](=O)[O-])c3[nH]c2=O)cc1 [Hit 2]
EC50 [7]: > 100 µM

SMILES: O=c1[nH]c2c([N+](=O)[O-])cc(Br)cc2cc1Cl [Compound 12]
Times more active than 3-chloro-analogue A ([1]; T. b. brucei trypomastigotes): 100 | EC50 [1]: 0.012 to 0.05 µM | Activity compared with nifurtimox against T. b. brucei [10]: six times more active than nifurtimox | BBB PAMPA assay Pe [2]: 40.51 ×10⁻⁶ cm/s and 40.51 ± 6.93 ×10⁻⁶ cm/s | Comet assay (genotoxicity) (HepG2 cell line [11]): not genotoxic; also recorded: lack of genotoxicity; also recorded: Negative | half-life at 24 h ([12]; female, Swiss, plasma, mouse, read-out: Plasmatic half life (converted)): 2.9 h | AUC(0-inf) [12, 15]: 123 µg·h/mL | Cmax [12, 15]: 17400 ng/mL | Tmax [12, 15]: 1.5 h | half-life [12, 15]: 2.87 h | Clairance ([12]; whole blood of mouse, n = 4): 0,00768 mL/h | Times more cytotoxic than reference drugs (HepG2 cell line [13]): about 10 | Tolerance, repeated dose ([14]; 25 mg/kg once daily for 5 days): well tolerated without any adverse effect noted | Organ lesions after euthanasia ([14]; kidney, liver, brain, heart, lung): no lesions were found | Tolerance, oral dose ([14]; once daily oral dose at 25 or 50 mg/kg): well tolerated

SMILES: COc1cccc2c1C(=O)c1c(O)c3c(c(O)c1C2=O)C[C@@](O)(C(=O)CO)C[C@@H]3O[C@H]1C[C@H](N)[C@H](O)[C@H](C)O1 [Doxorubicin, reference compound]
CC50 (HepG2 cell line [13]): 0.2 ± 0.02 µM

SMILES: O=c1[nH]c2c([N+](=O)[O-])cccc2cc1Cl [A, 3-chloro-8-nitroquinolin-2(1H)-one]
CC50 (HepG2 cell line [9]; 3-chloro analogue A): 85 ± 4 µM

SMILES: COc1ccc2cc(C(F)(F)F)cc([N+](=O)[O-])c2n1 [Compound 5]
Activity toward L. infantum (in words) [4]: inactive | Shift of the E° value versus the comparator compound [3]: −0.36 V

EC50 [1]: 0.012 to 0.05 µM | Shift of the E° value versus the comparator compound [3]: +0.03 V
SMILES: O=c1[nH]c2c([N+](=O)[O-])cc(Br)cc2cc1Br [Compound 10]
Selectivity index regarding T. b. brucei [1]: > 200 | CC50 at 72 h (in vitro): 17 µM

SMILES: Nc1cc(C(F)(F)F)cc2cc(Br)c(=O)[nH]c12 [Compound 8]
Activity toward L. infantum (in words) [4]: inactive
